For data set [1] the following is noted: 37° C., cited from earlier work.
Data set [2] is described as follows: Solution stability of didanosine as a function of pH (stomach degradation model, Acid Neutralization Rate Test). The note with it: water with hcl; pH 5, 37° C., 1/2 hour. The data set is classed as physicochemical.

Like-named read-outs stand apart in the source and are kept apart here. Some results are limits rather than exact numbers.

Turning to `OC[C@@H]1CC[C@H](n2cnc3c(O)ncnc32)O1` [Didanosine, 2',3'-Dideoxyinosine], the t90 was 16 days in data set [1] (pH 7.4), 509 days in data set [1] (pH 9.5) and less than 0.0014 days in data set [1] (pH <3). Moreover, the degraded at 0.5 h in data set [2] was less than 4%.
